Results from the NIST ThermoML archive (doi:10.1021/je300590v).

Experiment: xn = mol fraction of the nth substance listed
Conditions: Vibrating tube method

[Ar] [argon] + O=C=O
mass density [kg/m3]
Conditions | x2 = 0.9276 | x2 = 0.9605
273.15 K, 1000 kPa, Gas | – | 22.5
273.15 K, 1001 kPa, Gas | 21.2 | –
273.15 K, 2000 kPa, Gas | – | 46.1
273.15 K, 2001 kPa, Gas | 44.2 | –
273.15 K, 3000 kPa, Gas | – | 75.5
273.15 K, 3001 kPa, Gas | 72.9 | –
273.15 K, 3600 kPa, Gas | – | 106.3
273.15 K, 3800 kPa, Gas | 104.5 | –
273.15 K, 4901 kPa, Liquid | – | 893.5
273.15 K, 5001 kPa, Liquid | – | 894.8
273.15 K, 5900 kPa, Liquid | 881.4 | –
273.15 K, 6000 kPa, Liquid | 880.2 | –
273.15 K, 6001 kPa, Liquid | – | 905.7
273.15 K, 7000 kPa, Liquid | – | 915.5
273.15 K, 7001 kPa, Liquid | 886.5 | –
273.15 K, 8001 kPa, Liquid | 898 | 924
273.15 K, 9001 kPa, Liquid | 907.8 | –
273.15 K, 9002 kPa, Liquid | – | 932.1
273.15 K, 10001 kPa, Liquid | 917.3 | –
273.15 K, 10002 kPa, Liquid | – | 939.5
273.15 K, 11001 kPa, Liquid | 925.5 | –
273.15 K, 11002 kPa, Liquid | – | 946.4
273.15 K, 12000 kPa, Liquid | 933.4 | 952.9
273.15 K, 13000 kPa, Liquid | 940.6 | 959.1
273.15 K, 14000 kPa, Liquid | – | 965
273.15 K, 14002 kPa, Liquid | 947.4 | –
273.15 K, 15000 kPa, Liquid | 953.8 | –
273.15 K, 15001 kPa, Liquid | – | 970.6
273.15 K, 16001 kPa, Liquid | 959.9 | 975.9
273.15 K, 17000 kPa, Liquid | 965.7 | –
273.15 K, 17002 kPa, Liquid | – | 981
273.15 K, 18001 kPa, Liquid | 971.2 | 986
273.15 K, 19001 kPa, Liquid | 976.5 | –
273.15 K, 19003 kPa, Liquid | – | 990.8
273.15 K, 20000 kPa, Liquid | 981.5 | –
273.15 K, 20001 kPa, Liquid | – | 995.3
283.15 K, 1001 kPa, Gas | 20.1 | 20.9
283.15 K, 2000 kPa, Gas | 42.2 | 43.1
283.15 K, 3001 kPa, Gas | 68.4 | 69.6
283.15 K, 4000 kPa, Gas | – | 104.2
283.15 K, 4001 kPa, Gas | 101.2 | –
283.15 K, 4701 kPa, Gas | – | 144.6
283.15 K, 5000 kPa, Gas | 151.6 | –
283.15 K, 5010 kPa, Gas | 153 | –
283.15 K, 5060 kPa, Gas | 161.6 | –
283.15 K, 6000 kPa, Liquid | – | 827.6
283.15 K, 7001 kPa, Liquid | – | 844.5
283.15 K, 7301 kPa, Liquid | 801.8 | –
283.15 K, 8001 kPa, Liquid | 816.3 | 859.1
283.15 K, 9001 kPa, Liquid | 833.9 | 871.9
283.15 K, 10001 kPa, Liquid | 848.6 | 883.2
283.15 K, 11001 kPa, Liquid | 861.6 | 893.1
283.15 K, 12001 kPa, Liquid | 873 | 902.4
283.15 K, 13000 kPa, Liquid | – | 910.9
283.15 K, 13002 kPa, Liquid | 883.5 | –
283.15 K, 14000 kPa, Liquid | 892.6 | –
283.15 K, 14001 kPa, Liquid | – | 918.7
283.15 K, 15001 kPa, Liquid | 901.4 | –
283.15 K, 15003 kPa, Liquid | – | 926
283.15 K, 16001 kPa, Liquid | 909.4 | 932.8
283.15 K, 17000 kPa, Liquid | – | 939.4
283.15 K, 17001 kPa, Liquid | 916.9 | –
283.15 K, 18000 kPa, Liquid | 924.1 | 945.6
283.15 K, 19001 kPa, Liquid | 930.8 | –
283.15 K, 19002 kPa, Liquid | – | 951.6
283.15 K, 20001 kPa, Liquid | 937.2 | –
283.15 K, 20003 kPa, Liquid | – | 957.3
293.15 K, 1000 kPa, Gas | 19.9 | –
293.15 K, 1001 kPa, Gas | – | 20.4
293.15 K, 2000 kPa, Gas | – | 41
293.15 K, 2001 kPa, Gas | 40.6 | –
293.15 K, 3000 kPa, Gas | 64.4 | –
293.15 K, 3001 kPa, Gas | – | 65
293.15 K, 4000 kPa, Gas | 92.6 | –
293.15 K, 4001 kPa, Gas | – | 94.2
293.15 K, 5000 kPa, Gas | 128.2 | –
293.15 K, 5001 kPa, Gas | – | 132.6
293.15 K, 6000 kPa, Gas | – | 198
293.15 K, 6001 kPa, Gas | 179 | –
293.15 K, 6601 kPa, Gas | 253.1 | –
293.15 K, 7151 kPa, Liquid | – | 728.4
293.15 K, 8002 kPa, Liquid | – | 765.2
293.15 K, 8201 kPa, Liquid | 680.3 | –
293.15 K, 9001 kPa, Liquid | 726.1 | 790.8
293.15 K, 10001 kPa, Liquid | 760.3 | 811.1
293.15 K, 11001 kPa, Liquid | 785 | 827.5
293.15 K, 12000 kPa, Liquid | – | 841.6
293.15 K, 12002 kPa, Liquid | 804.5 | –
293.15 K, 13000 kPa, Liquid | – | 853.5
293.15 K, 13003 kPa, Liquid | 820.2 | –
293.15 K, 14001 kPa, Liquid | – | 864.3
293.15 K, 14002 kPa, Liquid | 834.1 | –
293.15 K, 15000 kPa, Liquid | 846.1 | –
293.15 K, 15001 kPa, Liquid | – | 874.3
293.15 K, 16001 kPa, Liquid | 857.1 | –
293.15 K, 16002 kPa, Liquid | – | 883.4
293.15 K, 17002 kPa, Liquid | 867.1 | 891.9
293.15 K, 18000 kPa, Liquid | 876.3 | –
293.15 K, 18001 kPa, Liquid | – | 899.7
293.15 K, 19001 kPa, Liquid | 884.9 | 906.9
293.15 K, 20001 kPa, Liquid | 892.9 | 913.8
